Results published in BindingDB's records for patent US20250122166 (ST. JUDE CHILDREN''S RESEARCH HOSPITAL, INC., 2025).

Molecular target: Protein cereblon (Homo sapiens, UniProt Q96SW2)
Experiment: Crbn Fluorescence Polarization Assay
Experimental: In this competitive fluorescent polarization assay Cy5 conjugated lenalidomide analog (Cy5—O-Len)1 was used as a fluorescent probe. 6XHis-CRBN-DDB1 protein (200 nM) and Cy5—O-Len probe (30 nM) were combined in 20 mM HEPES pH 7, 150 mM NaCl, 0.005% Tween-20 assay buffer. 20 μL of this assay cocktail was dispensed into wells of Corning 3821 black 384-well plates. Compounds were transferred to the assay plate from a dose-response plate using a Pintool on a Biomek FXP Laboratory Automation Workstation (Beckman Coulter). The plates were incubated in the dark for 1 hour at room temperature and then read on an Envision plate reader (PerkinElmer, Massachusetts, USA). IC50 values were determined using a proprietary software RISE (Robust Investigation of Screening Experiments), developed in house on the Pipeline Pilot platform (Biovia, v. 17.2.0). Data represent the mean of three independent determinations.

Row | IC50 [nM] | Structure (SMILES)
1 | < 1000 | O=C1CCC(N2Cc3c(CNC(=O)c4ccc(Br)cc4)cccc3C2=O)C(=O)N1 (stereo not drawn) [US20250122166, Compound 18]
2 | < 1000 | O=C1CCC(N2Cc3c(CNC(=O)c4ccc(Cl)c(C(F)(F)F)c4)cccc3C2=O)C(=O)N1 (stereo not drawn) [US20250122166, Compound 21]
3 | < 1000 | O=C1CCC(N2Cc3c(CNC(=O)c4ccc(Cl)cc4Cl)cccc3C2=O)C(=O)N1 (stereo not drawn) [US20250122166, Compound 28]
